Test results reported in PubChem BioAssay (NCI).
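Following 48 hours of exposure in 96-well plates, responses at five concentrations were used to interpolate endpoints linearly. GI50 = concentration required for 50% inhibition of growth. TGI marks complete inhibition of growth.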

Key:
Test in all cases: inhibition of tumour cell growth, NCI panel, 48 h
786-0 renal = tested on: 786-0 renal
A498 renal = tested on: A498 renal
A549 NSCLC = tested on: A549 NSCLC
ACHN renal = tested on: ACHN renal
CCRF-CEM leukemia = tested on: CCRF-CEM leukemia
COLO 205 colon = tested on: COLO 205 colon
DLD-1 colon = tested on: DLD-1 colon
DMS 114 small cell lung = tested on: DMS 114 small cell lung
DMS 273 small cell lung = tested on: DMS 273 small cell lung
EKVX NSCLC = tested on: EKVX NSCLC
HCC-2998 colon = tested on: HCC-2998 colon
HCT-116 colon = tested on: HCT-116 colon
HCT-15 colon = tested on: HCT-15 colon
HL-60(TB) leukemia = tested on: HL-60(TB) leukemia
HOP-18 NSCLC = tested on: HOP-18 NSCLC
HOP-62 NSCLC = tested on: HOP-62 NSCLC
HOP-92 NSCLC = tested on: HOP-92 NSCLC
HT29 colon = tested on: HT29 colon
IGROV1 ovarian = tested on: IGROV1 ovarian
K-562 leukemia = tested on: K-562 leukemia
KM12 colon = tested on: KM12 colon
KM20L2 colon = tested on: KM20L2 colon
LOX IMVI melanoma = tested on: LOX IMVI melanoma
LXFL 529 NSCLC = tested on: LXFL 529 NSCLC
M14 melanoma = tested on: M14 melanoma
M19-MEL melanoma = tested on: M19-MEL melanoma
MALME-3M melanoma = tested on: MALME-3M melanoma
MOLT-4 leukemia = tested on: MOLT-4 leukemia
NCI-H226 lung = tested on: NCI-H226 lung
NCI-H23 lung = tested on: NCI-H23 lung
NCI-H460 lung = tested on: NCI-H460 lung
OVCAR-3 ovarian = tested on: OVCAR-3 ovarian
OVCAR-4 ovarian = tested on: OVCAR-4 ovarian
OVCAR-5 ovarian = tested on: OVCAR-5 ovarian
OVCAR-8 ovarian = tested on: OVCAR-8 ovarian
RPMI-8226 leukemia = tested on: RPMI-8226 leukemia
RXF 393 renal = tested on: RXF 393 renal
SF-268 CNS = tested on: SF-268 CNS
SF-295 CNS = tested on: SF-295 CNS
SF-539 CNS = tested on: SF-539 CNS
SK-MEL-2 melanoma = tested on: SK-MEL-2 melanoma
SK-MEL-28 melanoma = tested on: SK-MEL-28 melanoma
SK-MEL-5 melanoma = tested on: SK-MEL-5 melanoma
SK-OV-3 ovarian = tested on: SK-OV-3 ovarian
SN12C renal = tested on: SN12C renal
SNB-19 CNS = tested on: SNB-19 CNS
SNB-75 CNS = tested on: SNB-75 CNS
SNB-78 CNS = tested on: SNB-78 CNS
SR leukemia = tested on: SR leukemia
SW-620 colon = tested on: SW-620 colon
TK-10 renal = tested on: TK-10 renal
U251 CNS = tested on: U251 CNS
UACC-257 melanoma = tested on: UACC-257 melanoma
UACC-62 melanoma = tested on: UACC-62 melanoma
UO-31 renal = tested on: UO-31 renal
XF 498 CNS = tested on: XF 498 CNS
CAKI-1 renal = tested on: CAKI-1 renal
NCI-H522 lung = tested on: NCI-H522 lung

## N#CCN1C(=O)c2cccc3cc([N+](=O)[O-])cc(c23)C1=O
786-0 renal
  TGI: > 100 µM
A498 renal
  TGI: > 100 µM
A549 NSCLC
  TGI: > 100 µM
ACHN renal
  TGI: > 100 µM
CCRF-CEM leukemia
  TGI: > 100 µM
COLO 205 colon
  TGI: > 100 µM
DLD-1 colon
  TGI: > 100 µM
DMS 114 small cell lung
  TGI: > 100 µM
DMS 273 small cell lung
  TGI: > 100 µM
EKVX NSCLC
  TGI: > 100 µM
HCC-2998 colon
  TGI: > 100 µM
HCT-116 colon
  TGI: > 100 µM
HCT-15 colon
  TGI: > 100 µM
HL-60(TB) leukemia
  TGI: 56.4 µM
HOP-18 NSCLC
  TGI: > 100 µM
HOP-62 NSCLC
  TGI: > 100 µM
HOP-92 NSCLC
  TGI: > 100 µM
HT29 colon
  TGI: > 100 µM
IGROV1 ovarian
  TGI: > 100 µM
K-562 leukemia
  TGI: > 100 µM
KM12 colon
  TGI: > 100 µM
KM20L2 colon
  TGI: > 100 µM
LOX IMVI melanoma
  TGI: 66.8 µM
LXFL 529 NSCLC
  TGI: > 100 µM
M14 melanoma
  TGI: > 100 µM
M19-MEL melanoma
  TGI: 44.5 µM
MALME-3M melanoma
  TGI: 92.7 µM
MOLT-4 leukemia
  TGI: > 100 µM
NCI-H226 lung
  TGI: 62.4 µM
NCI-H23 lung
  TGI: > 100 µM
NCI-H460 lung
  TGI: > 100 µM
OVCAR-3 ovarian
  TGI: 88.6 µM
OVCAR-4 ovarian
  TGI: > 100 µM
OVCAR-5 ovarian
  TGI: > 100 µM
OVCAR-8 ovarian
  TGI: > 100 µM
RPMI-8226 leukemia
  TGI: > 100 µM
RXF 393 renal
  TGI: > 100 µM
SF-268 CNS
  TGI: > 100 µM
SF-295 CNS
  TGI: > 100 µM
SF-539 CNS
  TGI: > 100 µM
SK-MEL-2 melanoma
  TGI: 22.2 µM
SK-MEL-28 melanoma
  TGI: > 100 µM
SK-MEL-5 melanoma
  TGI: > 100 µM
SK-OV-3 ovarian
  TGI: > 100 µM
SN12C renal
  TGI: > 100 µM
SNB-19 CNS
  TGI: > 100 µM
SNB-75 CNS
  TGI: > 100 µM
SNB-78 CNS
  TGI: > 100 µM
SR leukemia
  TGI: 41.8 µM
SW-620 colon
  TGI: > 100 µM
TK-10 renal
  TGI: 95.6 µM
U251 CNS
  TGI: > 100 µM
UACC-257 melanoma
  TGI: 83.1 µM
UACC-62 melanoma
  TGI: 60.5 µM
UO-31 renal
  TGI: > 100 µM
XF 498 CNS
  TGI: 68.3 µM

## CCOC(=O)C1=C(C)N(NC(=O)Nc2ccccc2)C(=O)C1=P(c1ccccc1)(c1ccccc1)c1ccccc1
786-0 renal
  TGI: > 100 µM
A498 renal
  TGI: > 100 µM
A549 NSCLC
  TGI: > 100 µM
ACHN renal
  TGI: > 100 µM
CAKI-1 renal
  TGI: > 100 µM
CCRF-CEM leukemia
  TGI: 96.7 µM
COLO 205 colon
  TGI: 56.4 µM
DLD-1 colon
  TGI: > 100 µM
DMS 114 small cell lung
  TGI: > 100 µM
DMS 273 small cell lung
  TGI: > 100 µM
EKVX NSCLC
  TGI: > 100 µM
HCC-2998 colon
  TGI: > 100 µM
HCT-116 colon
  TGI: > 100 µM
HCT-15 colon
  TGI: > 100 µM
HL-60(TB) leukemia
  TGI: 50.4 µM
HOP-18 NSCLC
  TGI: > 100 µM
HOP-62 NSCLC
  TGI: > 100 µM
HOP-92 NSCLC
  TGI: > 100 µM
HT29 colon
  TGI: > 100 µM
IGROV1 ovarian
  TGI: > 100 µM
K-562 leukemia
  TGI: > 100 µM
KM20L2 colon
  TGI: > 100 µM
LOX IMVI melanoma
  TGI: > 100 µM
LXFL 529 NSCLC
  TGI: > 100 µM
M14 melanoma
  TGI: > 100 µM
M19-MEL melanoma
  TGI: > 100 µM
MALME-3M melanoma
  TGI: > 100 µM
MOLT-4 leukemia
  TGI: 65.6 µM
NCI-H226 lung
  TGI: > 100 µM
NCI-H23 lung
  TGI: > 100 µM
NCI-H460 lung
  TGI: > 100 µM
NCI-H522 lung
  TGI: 63.8 µM
OVCAR-3 ovarian
  TGI: > 100 µM
OVCAR-4 ovarian
  TGI: > 100 µM
OVCAR-5 ovarian
  TGI: > 100 µM
OVCAR-8 ovarian
  TGI: > 100 µM
RPMI-8226 leukemia
  TGI: 82.5 µM
RXF 393 renal
  TGI: 72.5 µM
SF-268 CNS
  TGI: > 100 µM
SF-295 CNS
  TGI: > 100 µM
SF-539 CNS
  TGI: 53.3 µM
SK-MEL-2 melanoma
  TGI: 98.3 µM
SK-MEL-5 melanoma
  TGI: > 100 µM
SK-OV-3 ovarian
  TGI: > 100 µM
SN12C renal
  TGI: > 100 µM
SNB-19 CNS
  TGI: > 100 µM
SNB-75 CNS
  TGI: > 100 µM
SR leukemia
  TGI: 56.1 µM
SW-620 colon
  TGI: > 100 µM
TK-10 renal
  TGI: > 100 µM
U251 CNS
  TGI: > 100 µM
UACC-257 melanoma
  TGI: > 100 µM
UACC-62 melanoma
  TGI: 89.9 µM
UO-31 renal
  TGI: > 100 µM
XF 498 CNS
  TGI: 95.3 µM

## CC(=O)[O-].CCN(CC)c1ccc(C=NCCN=Cc2ccc(N(CC)CC)cc2[O-])c([O-])c1.[Mn+3]
786-0 renal
  GI50: 38.7 µM
  TGI: > 100 µM
A498 renal
  GI50: 22.9 µM
  TGI: 53.1 µM
A549 NSCLC
  GI50: 34.5 µM
  TGI: > 100 µM
ACHN renal
  GI50: > 100 µM
  TGI: > 100 µM
CAKI-1 renal
  GI50: > 100 µM
  TGI: > 100 µM
CCRF-CEM leukemia
  GI50: 42 µM
  TGI: > 100 µM
COLO 205 colon
  GI50: 18.6 µM
  TGI: 32.8 µM
DLD-1 colon
  GI50: 55.2 µM
  TGI: > 100 µM
DMS 114 small cell lung
  GI50: 19.6 µM
  TGI: 35.8 µM
DMS 273 small cell lung
  GI50: 22.4 µM
  TGI: 45.8 µM
EKVX NSCLC
  GI50: 39.6 µM
  TGI: > 100 µM
HCC-2998 colon
  GI50: 19.7 µM
  TGI: 35.9 µM
HCT-116 colon
  GI50: 18.5 µM
  TGI: 33.3 µM
HCT-15 colon
  GI50: > 100 µM
  TGI: > 100 µM
HL-60(TB) leukemia
  GI50: 17.6 µM
  TGI: 38.3 µM
HOP-18 NSCLC
  GI50: 18.7 µM
  TGI: 35.5 µM
HOP-62 NSCLC
  GI50: 19.2 µM
  TGI: 39.1 µM
HOP-92 NSCLC
  GI50: 38.3 µM
  TGI: 93.9 µM
HT29 colon
  GI50: 19.9 µM
  TGI: 40.1 µM
IGROV1 ovarian
  GI50: 29.6 µM
  TGI: 80.3 µM
K-562 leukemia
  GI50: 22.9 µM
  TGI: 61.3 µM
KM12 colon
  GI50: 17.8 µM
  TGI: 33.7 µM
KM20L2 colon
  GI50: 17.8 µM
  TGI: 33.2 µM
LOX IMVI melanoma
  GI50: 20.3 µM
  TGI: 37.6 µM
LXFL 529 NSCLC
  GI50: 22.5 µM
  TGI: 44.1 µM
M14 melanoma
  GI50: 19.2 µM
  TGI: 35.5 µM
M19-MEL melanoma
  GI50: 17.7 µM
  TGI: 32.4 µM
MALME-3M melanoma
  GI50: 18.4 µM
  TGI: 35.2 µM
MOLT-4 leukemia
  GI50: 36.5 µM
  TGI: > 100 µM
NCI-H226 lung
  GI50: 64.4 µM
  TGI: > 100 µM
NCI-H23 lung
  GI50: 19.7 µM
  TGI: 37.6 µM
NCI-H460 lung
  GI50: 21.3 µM
  TGI: 43.5 µM
NCI-H522 lung
  GI50: 43.3 µM
  TGI: 61.9 µM
OVCAR-3 ovarian
  GI50: 21 µM
  TGI: 44.1 µM
OVCAR-4 ovarian
  GI50: 37.3 µM
  TGI: > 100 µM
OVCAR-5 ovarian
  GI50: 21.3 µM
  TGI: 41 µM
OVCAR-8 ovarian
  GI50: 24.5 µM
  TGI: 57 µM
RXF 393 renal
  GI50: 20.5 µM
  TGI: 46.5 µM
SF-268 CNS
  GI50: 23.8 µM
  TGI: 52.7 µM
SF-295 CNS
  GI50: 27.7 µM
  TGI: 71.8 µM
SF-539 CNS
  GI50: 20.9 µM
  TGI: 37.4 µM
SK-MEL-28 melanoma
  GI50: 19.2 µM
  TGI: 37.8 µM
SK-MEL-5 melanoma
  GI50: 19 µM
  TGI: 33.9 µM
SN12C renal
  GI50: 20.9 µM
  TGI: 48.8 µM
SNB-19 CNS
  GI50: 19.9 µM
  TGI: 42.8 µM
SNB-75 CNS
  GI50: 22.1 µM
  TGI: 58.2 µM
SNB-78 CNS
  GI50: 45.1 µM
  TGI: > 100 µM
SR leukemia
  GI50: 22.3 µM
  TGI: 67.4 µM
SW-620 colon
  GI50: 27.4 µM
  TGI: 66.4 µM
TK-10 renal
  GI50: 56.6 µM
  TGI: > 100 µM
U251 CNS
  GI50: 15.4 µM
  TGI: 29.3 µM
UACC-257 melanoma
  GI50: 23 µM
  TGI: 55.5 µM
UACC-62 melanoma
  GI50: 25.7 µM
  TGI: 57.5 µM
UO-31 renal
  GI50: > 100 µM
  TGI: > 100 µM
